# Assay results from ChEMBL document CHEMBL4602605, “Fluoroquinolones structural and medicinal developments (2013-2018): Where are we now?” (Bioorg Med Chem, 2019).
# Key:
# Format in all cases: functional
# Escherichia coli [1] = assay: Antimicrobial activity against Escherichia coli ATCC 25922 incubated for 24 hrs; settings: ATCC 25922, 24 h
# Streptococcus pneumoniae = assay: Antibacterial activity against Streptococcus pneumoniae ATCC 49619 incubated for 24 hrs; settings: ATCC 49619, 24 h
# Staphylococcus aureus [2] = assay: Antimicrobial activity against Staphylococcus aureus ATCC 29213 incubated for 24 hrs; settings: ATCC 29213, 24 h
# Pseudomonas aeruginosa [3] = assay: Antimicrobial activity against Pseudomonas aeruginosa ATCC 27853 incubated for 24 hrs; settings: ATCC 27853, 24 h
# Staphylococcus aureus [4] = assay: Antimicrobial activity against Staphylococcus aureus ATCC 25923 incubated for 18 hrs by CLSI-based microbroth dilution method; settings: ATCC 25923, 18 h
# Escherichia coli [5] = assay: Antibacterial activity against Escherichia coli incubated for 18 hrs by CLSI-based broth microdilution method
# Pseudomonas aeruginosa [6] = assay: Antimicrobial activity against Pseudomonas aeruginosa ATCC 19429 incubated for 18 hrs by CLSI-based microbroth dilution method; settings: ATCC 19429, 18 h
# [7] = test system: Staphylococcus epidermidis; assay: Antimicrobial activity against methicillin-susceptible Staphylococcus epidermidis ATCC 12228 incubated for 18 to 24 hrs by two-fold serial dilution method
# Staphylococcus aureus [8] = assay: Antimicrobial activity against methicillin-resistant Staphylococcus aureus ATCC 33591 incubated for 18 to 24 hrs by two-fold serial dilution method
# Staphylococcus aureus [9] = assay: Antimicrobial activity against methicillin-susceptible Staphylococcus aureus ATCC 29213 incubated for 18 to 24 hrs by two-fold serial dilution method
# Enterococcus faecium = assay: Antimicrobial activity against Enterococcus faecium ATCC 700221 incubated for 18 to 24 hrs by two-fold serial dilution method
# [10] = test system: Mycobacterium tuberculosis; assay: Antimicrobial activity against Mycobacterium tuberculosis H37Rv ATCC 27294 incubated for 7 days by microplate Alamar blue assay; settings: H37Rv ATCC 27294, 168 h
Structure (SMILES),MIC (Escherichia coli [1]) [µg/mL],MIC (Streptococcus pneumoniae) [µg/mL],MIC (Staphylococcus aureus [2]) [µg/mL],MIC (Pseudomonas aeruginosa [3]) [µg/mL],MIC (Staphylococcus aureus [4]) [µg/mL],MIC (Escherichia coli [5]) [µg/mL],MIC (Pseudomonas aeruginosa [6]) [µg/mL],also measured
CCn1cc(C(=O)O)c(=O)c2cc(F)c(N3CCN(C/C(=N\O)c4ccccc4)CC3)cc21,50,100,50,100,,,,
Cl.NCCNc1cc2c(cc1F)c(=O)c(C(=O)O)cn2C1CC1,,,,,16,1,4,
CCCCN(CCCC)c1cc2c(cc1F)c(=O)c(C(=O)O)cn2CC,,,,,8,> 128,> 128,
COc1ccc(/C(CN2CCN(c3cc4c(cc3F)c(=O)c(C(=O)O)cn4C3CC3)CC2)=N\N)cc1,12.5,12.5,6.25,100,,,,
CCCCN(CCCC)c1cc2c(cc1F)c(=O)c(C(=O)O)cn2C1CC1,,,,,8,> 128,> 128,
CCCCn1cc(C(=O)O)c(=O)c2cc(F)c(N3CCNCC3)cc21.Cl,,,,,16,2,16,
O=C(O)c1cn(C2CC2)c2cc(N3CCOCC3)c(F)cc2c1=O,,,,,125,,8,
CN(C)c1cc2c(cc1F)c(=O)c(C(=O)O)cn2C1CC1,,,,,125,,8,
CCn1cc(C(=O)O)c(=O)c2cc(F)c(N(C)C)cc21,,,,,0.5,2,64,
CCCCCCn1cc(C(=O)O)c(=O)c2cc(F)c(N3CCNCC3)cc21.Cl,,,,,> 128,64,> 128,
COc1ccc(/C(CN2CCN(c3cc4c(cc3F)c(=O)c(C(=O)O)cn4C3CC3)CC2)=N\O)cc1,12.5,50,6.25,100,,,,
CCn1cc(C(=O)O)c(=O)c2cc(F)c(N3CCN(C/C(=N/N)c4ccc([N+](=O)[O-])cc4)CC3)cc21,12.5,25,12.5,50,,,,
CCn1cc(C(=O)O)c(=O)c2cc(F)c(N3CCN(C/C(=N/Nc4ccccc4)c4ccc(OC)cc4)CC3)cc21,25,100,25,100,,,,
CCn1cc(C(=O)O)c(=O)c2cc(F)c(N3CCN(C/C(=N/O)c4ccc(C)cc4)CC3)cc21,50,100,50,100,,,,
CN1CCN(c2cc3c(cc2F)c(=O)c(C(=O)O)cn3C2CC2)CC1,,,,,0.25,0.0078,1,
CCn1cc(C(=O)O)c(=O)c2cc(F)c(N3CCN(C/C(=N/OC)c4ccc(C)cc4)CC3)cc21,25,100,25,> 100,,,,
Cl.Cn1cc(C(=O)O)c(=O)c2cc(F)c(N3CCNCC3)cc21,,,,,8,0.25,2,
CCN(CC)c1cc2c(cc1F)c(=O)c(C(=O)O)cn2C1CC1,,,,,0.5,1,32,
O=C(O)c1cn(C2CC2)c2cc(N3CCCCCC3)c(F)cc2c1=O,,,,,0.25,2,> 128,
COc1c(N2CCN(C/C(C)=N/NC(=O)c3ccc([N+](=O)[O-])cc3)CC2)c(F)cc2c(=O)c(C(=O)O)cn(C3CC3)c12,,,,,,,,MIC [7]: 0.125 µg/mL; MIC (Staphylococcus aureus [8]): 0.25 µg/mL; MIC (Staphylococcus aureus [9]): 0.25 µg/mL; MIC (Enterococcus faecium): 128 µg/mL; MIC [10]: 0.294 µM
CCn1cc(C(=O)O)c(=O)c2cc(F)c(N3CCN(C/C(=N/Nc4ccccc4)c4ccc(C)cc4)CC3)cc21,25,100,50,> 100,,,,
CCn1cc(C(=O)O)c(=O)c2cc(F)c(N3CCN(C/C(=N\N)c4ccccc4)CC3)cc21,12.5,50,25,100,,,,
CCn1cc(C(=O)O)c(=O)c2cc(F)c(N3CCNCC3)cc21.Cl,,,,,2,,1,
COc1c(N2CCN(C/C(C)=N/NC(=O)c3ccc(O)cc3)CC2)c(F)cc2c(=O)c(C(=O)O)cn(C3CC3)c12,,,,,,,,MIC [7]: 0.06 µg/mL; MIC (Staphylococcus aureus [8]): 0.06 µg/mL; MIC (Staphylococcus aureus [9]): 0.125 µg/mL; MIC (Enterococcus faecium): 64 µg/mL; MIC [10]: 0.21 µM
CCn1cc(C(=O)O)c(=O)c2cc(F)c(N3CCN(C/C(=N/OC)c4ccc(OC)cc4)CC3)cc21,50,100,50,100,,,,
Cc1ccc(/C(CN2CCN(c3cc4c(cc3F)c(=O)c(C(=O)O)cn4C3CC3)CC2)=N\NC(N)=O)cc1,12.5,25,6.25,50,,,,

Structure (SMILES),MIC (Escherichia coli [1]) [µg/mL],MIC (Streptococcus pneumoniae) [µg/mL],MIC (Staphylococcus aureus [2]) [µg/mL],MIC (Pseudomonas aeruginosa [3]) [µg/mL],MIC (Staphylococcus aureus [4]) [µg/mL],MIC (Escherichia coli [5]) [µg/mL],MIC (Pseudomonas aeruginosa [6]) [µg/mL],also measured
Cl.O=C(O)c1cn(CCO)c2cc(N3CCNCC3)c(F)cc2c1=O,,,,,64,4,64,
CCN(CC)c1cc2c(cc1F)c(=O)c(C(=O)O)cn2CC,,,,,4,8,> 128,
COc1c(N2CCN(C/C(C)=N/Nc3nc4ccccc4s3)CC2)c(F)cc2c(=O)c(C(=O)O)cn(C3CC3)c12,,,,,,,,MIC [7]: 0.5 µg/mL; MIC (Staphylococcus aureus [8]): 0.5 µg/mL; MIC (Staphylococcus aureus [9]): 0.25 µg/mL; MIC (Enterococcus faecium): 64 µg/mL; MIC [10]: 0.313 µM
CCn1cc(C(=O)O)c(=O)c2cc(F)c(N3CCCCCC3)cc21,,,,,0.5,16,> 128,
COc1c(N2CCN(C/C(C)=N/Nc3ccc(F)cc3)CC2)c(F)cc2c(=O)c(C(=O)O)cn(C3CC3)c12,,,,,,,,MIC [7]: 0.125 µg/mL; MIC (Staphylococcus aureus [8]): 0.125 µg/mL; MIC (Staphylococcus aureus [9]): 0.125 µg/mL; MIC (Enterococcus faecium): 32 µg/mL; MIC [10]: 0.215 µM
COc1cccc(N/N=C(\C)CN2CCN(c3c(F)cc4c(=O)c(C(=O)O)cn(C5CC5)c4c3OC)CC2)c1,,,,,,,,MIC [7]: 0.25 µg/mL; MIC (Staphylococcus aureus [8]): 0.125 µg/mL; MIC (Staphylococcus aureus [9]): 0.125 µg/mL; MIC (Enterococcus faecium): > 64 µg/mL; MIC [10]: 0.434 µM
O=C(O)c1cn(C2CC2)c2cc(N3CCCC3)c(F)cc2c1=O,,,,,0.0625,,> 128,
CCn1cc(C(=O)O)c(=O)c2cc(F)c(N3CCN(C/C(=N/O)c4ccc([N+](=O)[O-])cc4)CC3)cc21,12.5,50,6.25,100,,,,
COc1ccc(Cn2cc(C(=O)O)c(=O)c3cc(F)c(N4CCNCC4)cc32)cc1.Cl,,,,,64,128,> 128,
CCn1cc(C(=O)O)c(=O)c2cc(F)c(N3CCN(C/C(=N/N)c4ccc(C)cc4)CC3)cc21,25,25,12.5,100,,,,
CCn1cc(C(=O)O)c(=O)c2cc(F)c(N3CCN(C/C(=N/OC)c4ccc([N+](=O)[O-])cc4)CC3)cc21,25,100,25,100,,,,
CCn1cc(C(=O)O)c(=O)c2cc(F)c(N3CCN(C/C(=N\Nc4ccccc4)c4ccc([N+](=O)[O-])cc4)CC3)cc21,50,100,50,> 100,,,,
COc1c(N2CCN(CCn3c([N+](=O)[O-])cnc3C)CC2)c(F)cc2c(=O)c(C(=O)O)cn(C3CC3)c12,,,,,,,,MIC [7]: 1 µg/mL; MIC (Staphylococcus aureus [8]): 1 µg/mL; MIC (Staphylococcus aureus [9]): 1 µg/mL; MIC (Enterococcus faecium): > 128 µg/mL; MIC [10]: 1.72 µM
Cl.O=C(O)c1cn(Cc2ccccc2)c2cc(N3CCNCC3)c(F)cc2c1=O,,,,,2,1,2,
CCn1cc(C(=O)O)c(=O)c2cc(F)c(N3CCN(C/C(=N\Nc4ccccc4)c4ccccc4)CC3)cc21,25,100,50,100,,,,
COc1c(N2CCN(C/C(C)=N/Nc3ccccn3)CC2)c(F)cc2c(=O)c(C(=O)O)cn(C3CC3)c12,,,,,,,,MIC [7]: 0.125 µg/mL; MIC (Staphylococcus aureus [8]): 0.125 µg/mL; MIC (Staphylococcus aureus [9]): 0.125 µg/mL; MIC (Enterococcus faecium): 64 µg/mL; MIC [10]: 0.372 µM
COc1ccc(/C(CN2CCN(c3cc4c(cc3F)c(=O)c(C(=O)O)cn4C3CC3)CC2)=N/NC(N)=O)cc1,12.5,12.5,6.25,50,,,,
CCn1cc(C(=O)O)c(=O)c2cc(F)c(N3CCN(C/C(=N/NC(N)=O)c4ccccc4)CC3)cc21,25,100,12.5,100,,,,
COc1c(N2CCN(C/C(C)=N/Nc3ccc(Cl)cc3)CC2)c(F)cc2c(=O)c(C(=O)O)cn(C3CC3)c12,,,,,,,,MIC [7]: 0.125 µg/mL; MIC (Staphylococcus aureus [8]): 0.06 µg/mL; MIC (Staphylococcus aureus [9]): 0.06 µg/mL; MIC (Enterococcus faecium): 64 µg/mL; MIC [10]: 0.433 µM
COc1c(N2CCN(CCCn3cc([N+](=O)[O-])nc3C)CC2)c(F)cc2c(=O)c(C(=O)O)cn(C3CC3)c12,,,,,,,,MIC [7]: 32 µg/mL; MIC (Staphylococcus aureus [8]): 32 µg/mL; MIC (Staphylococcus aureus [9]): 32 µg/mL; MIC (Enterococcus faecium): > 64 µg/mL; MIC [10]: 60.3 µM
CCn1cc(C(=O)O)c(=O)c2cc(F)c(N3CCN(C/C(=N/NC(N)=O)c4ccc([N+](=O)[O-])cc4)CC3)cc21,6.25,12.5,6.25,50,,,,
O=C(O)c1cn(C2CC2)c2cc(N3CCCCC3)c(F)cc2c1=O,,,,,0.25,,32,
COc1c(N2CCN(CCn3ccnn3)CC2)c(F)cc2c(=O)c(C(=O)O)cn(C3CC3)c12,,,,,,,,MIC [7]: 4 µg/mL; MIC (Staphylococcus aureus [8]): 4 µg/mL; MIC (Staphylococcus aureus [9]): 4 µg/mL; MIC (Enterococcus faecium): > 128 µg/mL; MIC [10]: 14.2 µM
CC(C)n1cc(C(=O)O)c(=O)c2cc(F)c(N3CCNCC3)cc21.Cl,,,,,8,0.5,4,
CCn1cc(C(=O)O)c(=O)c2cc(F)c(N3CCN(C/C(=N/OC)c4ccccc4)CC3)cc21,50,> 100,50,> 100,,,,
